Results as given in patent US20220073521A1, “PYRIMIDINE AND FIVE-MEMBERED NITROGEN HETEROCYCLE DERIVATIVE, PREPARATION METHOD THEREFOR, AND MEDICAL USES THEREOF” (Tuojie Biotech (Shanghai) Co., Ltd., priority 2018, published 2022).
Like-named read-outs stand apart in the source and are kept apart here.

Key:
[1] = target: T1, SHP2 wild-type phosphatase (recombinantly expressed full-length SHP2, aa 1-593) (Homo sapiens, UniProt Q06124); assay: In vitro activity on SHP2 wild-type phosphatase (DiFMUP fluorescence); conditions: wild-type full-length SHP2, activated polypeptide IRS1 0.5 nM, DiFMUP 30 μM;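 note: enzyme preincubated at room temperature, then DiFMUP reaction run at room temperature and halted with SDS, potency derived from a logistic curve fit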
T1 sequence (Q06124 1-593): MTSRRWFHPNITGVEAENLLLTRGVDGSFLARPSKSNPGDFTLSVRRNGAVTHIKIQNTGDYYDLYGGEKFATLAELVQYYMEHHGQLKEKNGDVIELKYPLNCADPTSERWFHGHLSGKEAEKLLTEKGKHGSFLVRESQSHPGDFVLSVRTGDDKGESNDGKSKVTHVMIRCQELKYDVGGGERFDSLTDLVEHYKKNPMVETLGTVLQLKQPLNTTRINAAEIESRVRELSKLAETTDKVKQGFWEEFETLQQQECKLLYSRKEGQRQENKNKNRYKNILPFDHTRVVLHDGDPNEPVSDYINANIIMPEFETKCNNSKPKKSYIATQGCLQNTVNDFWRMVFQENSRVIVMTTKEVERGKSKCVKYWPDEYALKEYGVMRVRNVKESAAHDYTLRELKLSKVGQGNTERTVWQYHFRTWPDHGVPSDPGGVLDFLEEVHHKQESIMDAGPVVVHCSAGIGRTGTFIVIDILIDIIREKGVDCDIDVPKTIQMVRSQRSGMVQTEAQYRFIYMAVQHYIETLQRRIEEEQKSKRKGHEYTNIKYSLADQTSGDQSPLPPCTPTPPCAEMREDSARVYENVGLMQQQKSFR
Method: 0.2 nM recombinantly expressed full-length SHP2 (aa 1-593), 0.5 nM activated polypeptide IRS1 with double phosphorylation sites (sequence: H2N-LN(pY)IDLDLY(dPEG8)LST(pY)ASINFQK-amide) and a series of concentrations of the test compound (final concentrations were 1 μM, 0.3 μM, 0.1 μM, 0.03 μM, 0.01 μM, 0.003 μM, 0.001 μM, 0.0003 μM, 0.0001 μM, 0.00003 μM) were added to the phosphatase reaction solution (60 mM HEPES, pH 7.5 0.005% Brij-35, 75 mM NaCl, 75 mM KCl, 1 mM EDTA, 5 mM DTT). The reaction solution was shaked (350 rpm) at room temperature for 30 minutes. The reaction substrate DiFMUP with a final concentration of 30 μM was added, and the reaction solution was reacted at room temperature for 30 minutes. The phosphatase reaction was stopped by adding 5 μL of stop solution (60 mM HEPES, pH 7.5, 0.2% SDS). Ex358 nm/Em455 fluorescence value was read on the fluorescence plate reader MD SpectraMax.
The IC50 value of the compound was calculated using the four-parameter logit method. In the following formula, x represents the logarithmic form of the compound concentration, and F(x) represents the effect value (the inhibition rate of cell proliferation under the given concentration condition): F(x)=((A−D)/(1+((x/C)^B)))+D. A, B, C and D are four parameters. Different concentrations correspond to different inhibition rates, based on which an inverse curve was plotted, and the IC50 of the inhibitor was calculated from the curve. The IC50 of the compound was calculated with Primer premier 6.0.

p-ERK in KYSE-520 cells = assay: Determination of p-ERK in KYSE-520 cells (HTRF); assay type: cell-based
Method: KYSE-520 cells (Nanjing Cobioer Biosciences CO., Ltd.) in the logarithmic growth phase were inoculated (30,000 cells/well) in 1640 medium containing 10% of FBS, and adhered in a 96-well plate overnight (5% CO2, 37° C.). […] The cell culture was stopped with cell lysate. The level of phosphorylated ERK in KYSE-520 cells was determined by a method based on homogeneous time-resolved fluorescence HTRF (Cisbio, 64ERKPEG). The fluorescence values (Ex337 nm/Em625/665 nm) were read on the compatible HTRF reader (MD SpectraMax).

KYSE-520 cells = assay: KYSE-520 cell proliferation experiment (CellTiter-Glo, 7 days); assay type: cell-based
Method: The treated cell plate was incubated at 37° C., 5% CO2 for 7 days. CellTiter-Glo (Promega, G7573) was used to determine the number of viable cells in each well of the treated plate. 100 μL of the detection reagent was added to each well, and the plate was incubated at room temperature for 10 minutes. Then, the […] in each well was measured with Envision plate reader (PerkinElmer). […] The IC50 value was further calculated as the compound concentration required for 50% proliferation inhibition in the best-fit curve with […].

SMILES | IC50 [1] | IC50 (p-ERK in KYSE-520 cells; 2 hours) | IC50 (p-ERK in KYSE-520 cells; Homo sapiens, KYSE-520, 2 h) | IC50 (KYSE-520 cells; Homo sapiens) | IC50 (KYSE-520 cells)
Cc1nc(N2CCC3(CC2)CO[C@@H](C)[C@H]3N)n2ccnc2c1-c1c(F)ccc(Cl)c1Cl [Example 11, (3S,4S)-8-(8-(2,3-Dichloro-6-fluorophenyl)-7-methylimidazo[1,2-c]pyrimidin-5-yl)-3-methyl-2-oxa-8-azaspiro[4.5]decan-4-amine] | 41.1 nM | – | – | – | –
CC1(O)CN(c2nccc(Sc3cnc(N4CCC5(CC4)Cc4ncccc4[C@H]5N)n4ccnc34)c2Cl)C1 [Example 39, (S)-1-(4-((5-(5-Amino-5,7-dihydrospiro[cyclopenta[b]pyridine-6,4′-piperidin]-1′-yl)imidazo[1,2-c]pyrimidin-8-yl)thio)-3-chloropyridin-2-yl)-3-methylazetidin-3-ol] | 1 nM | 10.3 nM | 7.9 nM | 24.1 nM | –
Cc1nc(N2CCC3(CCC[C@H]3N)CC2)n2ccnc2c1-c1ccnc(Cl)c1Cl [Example 5, (R)-8-(8-(2,3-Dichloropyridin-4-yl)-7-methylimidazo[1,2-c]pyrimidin-5-yl)-8-azaspiro[4.5]decan-1-amine] | 2.9 nM | – | – | – | –
Nc1nc(N2CCC3(CCC[C@H]3N)CC2)n2ccnc2c1-c1cccc(Cl)c1Cl [Example 20, (R)-8-(7-Amino-8-(2,3-dichlorophenyl)imidazo[1,2-c]pyrimidin-5-yl)-8-azaspiro[4.5]decan-1-amine] | 2 nM | – | 85.9 nM | 178 nM | –
N[C@@H]1CCCC12CCN(c1ncc(Sc3cccnc3C(F)(F)F)c3nccn13)CC2 [Example 16, (R)-8-(8-((2-(Trifluoromethyl)pyridin-3-yl)thio)imidazo[1,2-c]pyrimidin-5-yl)-8-azaspiro[4.5]decan-1-amine] | 6.8 nM | – | 166 nM | 548 nM | –
CNc1nccc(Sc2cnc(N3CCC4(CC3)Cc3ncccc3[C@H]4N)n3ccnc23)c1F [Example 37, (S)-1′-(8-((3-Fluoro-2-(methylamino)pyridin-4-yl)thio)imidazo[1,2-c]pyrimidin-5-yl)-5,7-dihydrospiro[cyclopenta[b]pyridine-6,4′-piperidin]-5-amine] | 4 nM | – | 8.6 nM | 37 nM | –
N[C@@H]1c2cccnc2CC12CCN(c1ncc(Sc3ccnc(N4CCOCC4)c3Cl)c3nccn13)CC2 [Example 40, (S)-1′-(8-((3-Chloro-2-morpholinopyridin-4-yl)thio)imidazo[1,2-c]pyrimidin-5-yl)-5,7-dihydrospiro[cyclopenta[b]pyridine-6,4′-piperidin]-5-amine] | 1.4 nM | – | 6.5 nM | 27.3 nM | –
Cc1nc(N2CCC3(CC2)CO[C@@H](C)[C@H]3N)n2ccnc2c1-c1cccc(Cl)c1Cl (single isomer, unassigned) [The atropisomer with a RT of 2.716 minutes in Examples 3 and 4] | 61.7 nM | – | – | – | –
COc1nccc(Sc2cnc(N3CCC4(CC3)Cc3ncccc3[C@H]4N)n3ccnc23)c1Cl [Example 35, (S)-1′-(8-((3-Chloro-2-methoxypyridin-4-yl)thio)imidazo[1,2-c]pyrimidin-5-yl)-5,7-dihydrospiro[cyclopenta[b]pyridine-6,4′-piperidin]-5-amine] | 1.5 nM | – | – | – | –
COc1nccc(-c2c(C)nc(N3CCC4(CCC[C@H]4N)CC3)n3ccnc23)c1Cl [Example 6, (R)-8-(8-(3-Chloro-2-methoxypyridin-4-yl)-7-methylimidazo[1,2-c]pyrimidin-5-yl)-8-azaspiro[4.5]decan-1-amine] | 26.9 nM | – | – | – | –
Cc1nc(N2CCC3(CCC[C@H]3N)CC2)n2ccnc2c1-c1ccc(OC(F)F)cc1Cl [Example 7, (R)-8-(8-(2-Chloro-4-(difluoromethoxy)phenyl)-7-methylimidazo[1,2-c]pyrimidin-5-yl)-8-azaspiro[4.5]decan-1-amine] | 42.2 nM | – | – | – | –
Nc1nc(N2CCC3(CC2)Cc2ccccc2[C@H]3N)n2ccnc2c1Sc1cccnc1C(F)(F)F [Example 30, (S)-1′-(7-Amino-8-((2-(trifluoromethyl)pyridin-3-yl)thio)imidazo[1,2-c]pyrimidin-5-yl)-1,3-dihydrospiro[indene-2,4′-piperidin]-1-amine] | 1.4 nM | – | 6.1 nM | 8.9 nM | –
Nc1nccc(Sc2cnc(N3CCC4(CC3)Cc3ccccc3[C@H]4N)n3ccnc23)c1Cl [Example 32, (S)-1′-(8-((2-Amino-3-chloropyridin-4-yl)thio)imidazo[1,2-c]pyrimidin-5-yl)-1,3-dihydrospiro[indene-2,4′-piperidin]-1-amine] | 1 nM | – | 2.7 nM | 12.9 nM | –
Nc1nccc(Sc2cnc(N3CCC4(CC3)Cc3ncccc3[C@H]4N)n3ccnc23)c1Cl [Example 27, (S)-1′-(8-((2-Amino-3-chloropyridin-4-yl)thio)imidazo[1,2-c]pyrimidin-5-yl)-5,7-dihydrospiro[cyclopenta[b]pyridine-6,4′-piperidin]-5-amine] | 1.7 nM | – | 8 nM | 31.5 nM | –
Cc1nc(N2CCC3(CC2)CO[C@@H](C)[C@H]3N)n2ccnc2c1-c1cccc(Cl)c1Br [Example 12, (3S,4S)-8-(8-(2-Bromo-3-chlorophenyl)-7-methylimidazo[1,2-c]pyrimidin-5-yl)-3-methyl-2-oxa-8-azaspiro[4.5]decan-4-amine] | – | – | 59.2 nM | 346 nM | –
Cc1nccc(Sc2c(N)nc(N3CCC4(CC3)CO[C@@H](C)[C@H]4N)n3ccnc23)c1Cl [Example 25, (3S,4S)-8-(7-Amino-8-((3-chloro-2-methylpyridin-4-yl)thio)imidazo[1,2-c]pyrimidin-5-yl)-3-methyl-2-oxa-8-azaspiro[4.5]decan-4-amine] | 5.2 nM | – | 29.1 nM | – | –
CC1(N)CCN(c2ncc(Sc3ccnc(F)c3Cl)c3nccn23)CC1 [Example 14, 1-(8-((3-Chloro-2-fluoropyridin-4-yl)thio)imidazo[1,2-c]pyrimidin-5-yl)-4-methylpiperidin-4-amine] | 232 nM | – | – | – | –
Nc1nccc(Sc2c(N)nc(N3CCC4(CC3)Cc3ccccc3[C@H]4N)n3ccnc23)c1Cl [Example 29, (S)-1′-(7-Amino-8-((2-amino-3-chloropyridin-4-yl)thio)imidazo[1,2-c]pyrimidin-5-yl)-1,3-dihydrospiro[indene-2,4′-piperidin]-1-amine] | 1.3 nM | – | – | 14 nM | –
Cc1nc(N2CCC3(CC2)Cc2ncccc2[C@H]3N)n2ccnc2c1-c1cccc(Cl)c1Cl [Example 33, (S)-1′-(8-(2,3-Dichlorophenyl)-7-methylimidazo[1,2-c]pyrimidin-5-yl)-5,7-dihydrospiro[cyclopenta[b]pyridine-6,4′-piperidin]-5-amine] | 1.2 nM | – | – | – | –
C[C@@H]1OCC2(CCN(c3nc(C(F)(F)F)c(Sc4cccnc4C(F)(F)F)c4nccn34)CC2)[C@@H]1N [Example 13, (3S,4S)-3-Methyl-8-(7-(trifluoromethyl)-8-((2-(trifluoromethyl)pyridin-3-yl)thio)imidazo[1,2-c]pyrimidin-5-yl)-2-oxa-8-azaspiro[4.5]decan-4-amine] | 818 nM | – | – | – | –
CC1(N)CCN(c2ncc(Sc3ccnc(F)c3Cl)c3nncn23)CC1 [Example 19, 1-(8-((3-Chloro-2-fluoropyridin-4-yl)thio)-[1,2,4]triazolo[4,3-c]pyrimidin-5-yl)-4-methylpiperidin-4-amine] | 555 nM | – | – | – | –
Cc1nc(N2CCC3(CC2)CO[C@@H](C)[C@H]3N)c(CO)nc1-c1cccc(Cl)c1Cl [RMC4550, reference compound] | – | 34.6 nM | – | – | 201 nM
C[C@@H]1OCC2(CCN(c3ncc(Sc4ccncc4C(F)(F)F)c4nccn34)CC2)[C@@H]1N [Example 18, (3S,4S)-3-Methyl-8-(8-((3-(trifluoromethyl)pyridin-4-yl)thio)imidazo[1,2-c]pyrimidin-5-yl)-2-oxa-8-azaspiro[4.5]decan-4-amine] | 8.6 nM | – | – | – | –
CNc1ncccc1Sc1cnc(N2CCC3(CC2)Cc2ncccc2[C@H]3N)n2ccnc12 [Example 38, (S)-1′-(8-((2-(Methylamino)pyridin-3-yl)thio)imidazo[1,2-c]pyrimidin-5-yl)-5,7-dihydrospiro[cyclopenta[b]pyridine-6,4′-piperidin]-5-amine] | 10.9 nM | – | – | – | –
Cc1nc(N2CCC3(CC2)CO[C@@H](C)[C@H]3N)n2ccnc2c1-c1c(F)cccc1Cl [Example 10, (3S,4S)-8-(8-(2-Chloro-6-fluorophenyl)-7-methylimidazo[1,2-c]pyrimidin-5-yl)-3-methyl-2-oxa-8-azaspiro[4.5]decan-4-amine] | 111 nM | – | – | – | –
